Here are results for two compounds from patent US12109315B2, “Method for treating Blastocystis infection” (Imam Abdulrahman Bin Faisal University, priority 2022, dated 2024).

One series relates to Blastocystis cysts. Nature of the series: organism not typed. Format: cell-based. To be noted: read-out: Reduction in the percentage of viability of Blastocystis cysts. The source says: Suspensions of cultured Blastocystis from symptomatic patients were used for evaluating biological activities of the formulated nanocomposites. Blastocystis were obtained from the El-Badry Lab where ethically approved by the Deanship of Scientific Research and Postgraduate Studies of Imam Abdulrahman Bin Faisal University under the Institutional Review Board (IRB) number (IRB #2021-01-009).
Blastocystis were sub-cultured using fresh Jones' medium enriched with 10% horse serum according to Jones to get rid of stool debris [Jones, W. Ann Trop Med Parasitol., 1946, 40, 130-140; & Zman, V., and Khan, K. Southt Asian J Trop Med Public Health, 1994, 25, 792-793, each of which is incorporated herein by reference in its entirety]. Cultures with vacuolar forms of Blastocystis greater than 10^6 were used for evaluating biological activities of the formulated nanocomposites.
Suspension of cultured Blastocytis cysts, in logarithmic growth phase of 10^6/ml, were inoculated in sets of culture tubes with Jones' culture media. Haemocytometer counting chamber was used to count the number of Blastocystis cysts. The experiments contained 3 groups as follows:
Group 1 (G1): parasite (negative, not treated) control group, containing only cultured cysts of Blastocystis.
Group 2 (G2): drug (positive) control, containing cultured parasites exposed to 500 μg/ml metronidazole as reference anti-Blastocystis therapy.
Group 3 (G3): nanocomposites tested group, containing cultured parasites exposed to the three nanocomposites. G3 was further divided into subgroups to test three nanocomposites (G3A, G3B and […]) at different concentrations (G3i-iv). Parasites were exposed to increasing concentrations of the three nanocomposites of 100 μg/ml (G3i) 200 μg/ml (G3ii), 500 μg/ml (G3iii) and 800 μg/ml (G3iv) (W/V). All tubes were incubated at 37° C. in humidified CO2 for 48 hours.
All tested nanocomposites for each concentration were prepared by diluting stock solution in appropriate amount of PBS. The volume of each of the experiment tubes was brought to 1 ml with Blastocystis 10^6/ml concentration. All experiments were performed in triplicate [El-Sayed, S. H., et. al., Res J Parasitol., 2017, 12,2, 33-44; Méabed, E. M. H., Phytomedicine, 2018, 1, 43, 158-163; & Mokhtar, A. B., et. al., Int J Environ Res Public Health, 2019, 16, 1555, each of which is incorporated herein by reference in its entirety].
The number of Blastocystis cysts from all cultured tubes included in the experiment were counted under the microscope in haemocytometer counting chamber, and cultured Blastocystis cysts were tested for their viability using Trypan blue solution (0.4%). […] The dead Blastocystis cysts were further confirmed by microscopic detection of cell wall disruption and destruction of internal structures. All cultured tubes were examined for percentage of reduction in growth of Blastocystis cysts each hour for 5 hours then after 24 hours. The minimal lethal concentration (MLC) was determined to be the concentration at which no Blastocystis cysts were observed.

The nature of series [1]: Drug release study (dialysis membrane, PBS, UV-visible spectroscopy). In kind it is physicochemical. To be noted: within 12 h, absence of nanocarrier, PBS pH 5.6, 37° C. On the procedure:
Prior to the study, the dialysis membrane (12 KDa, Sigma Aldrich) was activated and then 15 mg of nanoformulation was dispersed in 25 ml of PBS solution (pH 5.6 and 7.4). The release of antioxidants are studied at 37° C. At regular time interval, 5 ml of solution was withdrawn, and release of antioxidants were measured using UV-visible spectroscopy. The withdrawn solution (5 ml) was replaced with equal volume of fresh PBS solution.
Various concentration of aliquots 5, 10, 15, 20, 25 and 30 μg/ml was prepared with makeup volume to 10 ml using release medium PBS solution (pH=5.6 or 7.4) and calibration curve established against blank at maximum absorption wavelength λmax of 428 nm and 307 nm, respectively. […] The release study was repeated in triplicates.

Read-outs that look alike come from different tables or passages of the source.

In the case of `Cc1ncc([N+](=O)[O-])n1CCO` [Metronidazole, metronidazole], the inhibition at 500 µg/mL stood at 81.7% in the series on Blastocystis cysts (1 h); 87.7% in the series on Blastocystis cysts (2 h); 91.3% with Blastocystis cysts (3 h); 96.3% in the series with Blastocystis cysts (4 h); 98.7% in the series with Blastocystis cysts (5 h); 99.3% in the series on Blastocystis cysts (24 h).
With `Oc1ccc(/C=C/c2cc(O)cc(O)c2)cc1` [resveratrol, Resveratrol], the “maximum release of resveratrol (burst release)” value in series [1] is 43%.
